Laboratory results reported in article PMC8286599 (Gut Pathogens, 2021).
Like-named read-outs stand apart in the source and are kept apart here.

What was measured:
MDR-EAEC strains [1] = assay: MIC and MBC by broth microdilution with resazurin; format: cell-based, enteroaggregative Escherichia coli; conditions: infant diarrhoea isolate
From the text: (§1) The characterised MDR field strains of EAEC (E1; E2; E3), S. Enteritidis (S1; S2; S3), and S. Typhimurium (ST1; ST2; ST3) maintained in the laboratory repository of Meat Safety Laboratory of ICAR-National Research Centre on Meat, Hyderabad re-validated using PCR assays were used to evaluate the in vitro antibacterial efficacy of phytochemicals. E. coli ATCC 25922 was used as the quality control strain.
(§2) The antimicrobial efficacy of identified phytochemicals against multi-drug resistant EAEC and NTS strains was determined by estimating the minimum inhibitory concentration (MIC) and minimum bactericidal concentrations (MBC).
(§3) Subsequent to the incubation period, resazurin dye (0.015 %) was added to all the wells to determine the dye reduction (pink) and thereby the bacterial inhibition.

[2] = system: MDR-S. Enteritidis strains; assay: MIC and MBC by broth microdilution with resazurin; format: cell-based, Salmonella Enteritidis; conditions: poultry droppings isolate
From the text: as §1, §2, §3

[3] = system: MDR-S. Typhimurium strains; assay: MIC and MBC by broth microdilution with resazurin; format: cell-based, Salmonella Typhimurium; conditions: poultry droppings isolate
From the text: as §1, §2, §3

Haemolytic assay = format: cell-based; conditions: read-out: Haemolysis; for hemolysis at 0.5 X MIC: 0.50X MIC
Protocol: (§4) The haemolytic assay of the individual phytochemical was performed by measuring the release of haemoglobin from sheep and human ‘O’ erythrocytes at 540 nm. The percentage of haemolysis was calculated as (Asample – APBS)/ (ATriton−X – APBS) ×100, in which Asample is the absorbance of phytochemical treatment, APBS is the absorbance of untreated control with PBS, and ATriton−X is the absorbance of lysed cells treated with Triton X-100 measured at 540 nm.

[4] = Haemolytic assay, text summary; format: cell-based; conditions: sheep and human, sheep and human 'O' erythrocytes; read-out: Haemolysis
Protocol: as §4

MDR-EAEC strains [5] = assay: Stability assay, pH (MIC)
From the text: (§5) To explore the utility of phytochemicals as therapeutic molecules and their stability, individual phytochemicals were exposed to cationic salts, and different pH levels followed by analysing their MIC and MBC values against test strains as described earlier.
(§6) Subsequent to exposure to varied conditions, the antimicrobial activity of the phytochemicals was estimated by determining their MIC and MBC values against all the selected MDR strains of EAEC, S. Enteritidis, and S. Typhimurium as described earlier.

[6] = system: MDR-S. Enteritidis strains; assay: Stability assay, pH (MIC)
From the text: as §5, §6

[7] = system: MDR-S. Typhimurium strains; assay: Stability assay, pH (MIC)
From the text: as §5, §6

MDR-EAEC strains [8] = assay: Stability assay, cationic salts (MIC)
From the text: as §5, §6

[9] = system: MDR-S. Enteritidis strains; assay: Stability assay, cationic salts (MIC)
From the text: as §5, §6

[10] = system: MDR-S. Typhimurium strains; assay: Stability assay, cationic salts (MIC)
From the text: as §5, §6

[11] = human 'O' erythrocytes, Human RBCs

## Cc1ccc(C(C)C)cc1O [Carvacrol, carvacrol]
MDR-EAEC strains [1]; EAEC (E1)
  MBC: 1.0 µl/ml
  MIC: 0.25 µl/ml
MDR-EAEC strains [1]; EAEC (E2)
  MBC: 0.50 µl/ml
  MIC: 0.50 µl/ml
MDR-EAEC strains [1]; EAEC (E3)
  MBC: 0.50 µl/ml
  MIC: 0.25 µl/ml
[2]; S. Enteritidis (S1)
  MBC: 0.50 µl/ml
  MIC: 0.12 µl/ml
[2]; S. Enteritidis (S2)
  MBC: 0.50 µl/ml
  MIC: 0.25 µl/ml
[2]; S. Enteritidis (S3)
  MBC: 0.50 µl/ml
  MIC: 0.25 µl/ml
[3]; S. Typhimurium (ST1)
  MBC: 0.50 µl/ml
  MIC: 0.12 µl/ml
[3]; S. Typhimurium (ST2)
  MBC: 0.50 µl/ml
  MIC: 0.12 µl/ml
[3]; S. Typhimurium (ST3)
  MBC: 0.50 µl/ml
  MIC: 0.12 µl/ml
Haemolytic assay; [11]
  hemolysis at 0.25 X MIC: 2.66%
  hemolysis at 0.5 X MIC: 4.88%
  hemolysis at 1 X MIC: 11.2%
  hemolysis at 2 X MIC: 57.2%
  hemolysis at 4 X MIC: 82.1%
  hemolysis at 8 X MIC: 92.7%
Haemolytic assay; sheep erythrocytes, Sheep RBCs
  hemolysis at 0.25 X MIC: 0%
  hemolysis at 0.5 X MIC: 0.773%
  hemolysis at 1 X MIC: 1.25%
  hemolysis at 2 X MIC: 75.7%
  hemolysis at 4 X MIC: 81.8%
  hemolysis at 8 X MIC: 86%
[4]
  hemolysis: 57 to 82%
MDR-EAEC strains [5]; pH 4, strain E1
  MIC at given pH: 0.5 µl/ml
MDR-EAEC strains [5]; pH 4, strain E2
  MIC at given pH: 1.0 µl/ml
MDR-EAEC strains [5]; pH 4, strain E3
  MIC at given pH: 0.5 µl/ml
MDR-EAEC strains [5]; pH 4.0 to 8.0, MDR-EAEC strains
  Change of MIC values at varied pH: two- to four-fold increase
MDR-EAEC strains [5]; pH 6, strain E1
  MIC at given pH: 0.5 µl/ml
MDR-EAEC strains [5]; pH 6, strain E2
  MIC at given pH: 1.0 µl/ml
MDR-EAEC strains [5]; pH 6, strain E3
  MIC at given pH: 0.5 µl/ml
MDR-EAEC strains [5]; pH 8, strain E1
  MIC at given pH: 0.5 µl/ml
MDR-EAEC strains [5]; pH 8, strain E2
  MIC at given pH: 1.0 µl/ml
MDR-EAEC strains [5]; pH 8, strain E3
  MIC at given pH: 0.5 µl/ml
[6]; pH 4, strain S1
  MIC at given pH: 0.5 µl/ml
[6]; pH 4, strain S2
  MIC at given pH: 0.5 µl/ml
[6]; pH 4, strain S3
  MIC at given pH: 0.5 µl/ml
[6]; pH 6, strain S1
  MIC at given pH: 0.5 µl/ml
[6]; pH 6, strain S2
  MIC at given pH: 0.5 µl/ml
[6]; pH 6, strain S3
  MIC at given pH: 0.5 µl/ml
[6]; pH 8, strain S1
  MIC at given pH: 0.5 µl/ml
[6]; pH 8, strain S2
  MIC at given pH: 0.5 µl/ml
[6]; pH 8, strain S3
  MIC at given pH: 0.5 µl/ml
[7]; pH 4, strain ST1
  MIC at given pH: 0.5 µl/ml
[7]; pH 4, strain ST2
  MIC at given pH: 0.5 µl/ml
[7]; pH 4, strain ST3
  MIC at given pH: 1.0 µl/ml
[7]; pH 6, strain ST1
  MIC at given pH: 0.5 µl/ml
[7]; pH 6, strain ST2
  MIC at given pH: 1.0 µl/ml
[7]; pH 6, strain ST3
  MIC at given pH: 1.0 µl/ml
[7]; pH 8, strain ST1
  MIC at given pH: 2.0 µl/ml
[7]; pH 8, strain ST2
  MIC at given pH: 1.0 µl/ml
[7]; pH 8, strain ST3
  MIC at given pH: 1.0 µl/ml
MDR-EAEC strains [8]; 2 mM MgCl2, strain E1
  MIC with cationic salt: 0.5 µl/ml
MDR-EAEC strains [8]; 2 mM MgCl2, strain E2
  MIC with cationic salt: 1.0 µl/ml
MDR-EAEC strains [8]; 2 mM MgCl2, strain E3
  MIC with cationic salt: 1.0 µl/ml
MDR-EAEC strains [8]; 150 mM NaCl and 2 mM MgCl2, MDR-EAEC strains
  Change of MIC values with cationic salts: two- to four-fold increase
MDR-EAEC strains [8]; 150 mM NaCl, strain E1
  MIC with cationic salt: 1.0 µl/ml
MDR-EAEC strains [8]; 150 mM NaCl, strain E2
  MIC with cationic salt: 1.0 µl/ml
MDR-EAEC strains [8]; 150 mM NaCl, strain E3
  MIC with cationic salt: 1.0 µl/ml
[9]; 2 mM MgCl2, strain S1
  MIC with cationic salt: 0.5 µl/ml
[9]; 2 mM MgCl2, strain S2
  MIC with cationic salt: 0.5 µl/ml
[9]; 2 mM MgCl2, strain S3
  MIC with cationic salt: 0.5 µl/ml
[9]; 150 mM NaCl, strain S1
  MIC with cationic salt: 0.5 µl/ml
[9]; 150 mM NaCl, strain S2
  MIC with cationic salt: 1.0 µl/ml
[9]; 150 mM NaCl, strain S3
  MIC with cationic salt: 0.5 µl/ml
[10]; 2 mM MgCl2, strain ST1
  MIC with cationic salt: 0.5 µl/ml
[10]; 2 mM MgCl2, strain ST2
  MIC with cationic salt: 0.5 µl/ml
[10]; 2 mM MgCl2, strain ST3
  MIC with cationic salt: 0.5 µl/ml
[10]; 150 mM NaCl, strain ST1
  MIC with cationic salt: 0.5 µl/ml
[10]; 150 mM NaCl, strain ST2
  MIC with cationic salt: 0.5 µl/ml
[10]; 150 mM NaCl, strain ST3
  MIC with cationic salt: 0.5 µl/ml
